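A five-concentration, 48-hour dose response in 96-well plates underlies each endpoint, interpolated linearly between surrounding concentrations. GI50 is the concentration that inhibits growth by half.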 Active and inactive are the calls of the source. Cut-off read from the data, not from the text of the source: active = GI50 up to about 1.1 µM and inactive = higher.
Legend:
Experiment in all cases: NCI tumour cell line growth inhibition, 48 h
786-0 = system: 786-0
A498 = system: A498
A549 = system: A549
ACHN = system: ACHN
CAKI-1 = system: CAKI-1
CCRF-CEM = system: CCRF-CEM
COLO 205 = system: COLO 205
DLD-1 = system: DLD-1
DMS-114 = system: DMS-114
DMS-273 = system: DMS-273
EKVX = system: EKVX
HCC 2998 = system: HCC 2998
HCT-116 = system: HCT-116
HCT-15 = system: HCT-15
HL-60 = system: HL-60
HOP-18 = system: HOP-18
HOP-62 = system: HOP-62
HOP-92 = system: HOP-92
HT-29 = system: HT-29
IGROV-1 = system: IGROV-1
K562 = system: K562
KM-20L2 = system: KM-20L2
KM12 = system: KM12
LOX IMVI = system: LOX IMVI
M14 = system: M14
M19-MEL = system: M19-MEL
MOLT-4 = system: MOLT-4
Malme-3M = system: Malme-3M
NCI-H226 = system: NCI-H226
NCI-H23 = system: NCI-H23
NCI-H460 = system: NCI-H460
NCI-H522 = system: NCI-H522
OVCAR-3 = system: OVCAR-3
OVCAR-4 = system: OVCAR-4
OVCAR-5 = system: OVCAR-5
OVCAR-8 = system: OVCAR-8
RPMI-8226 = system: RPMI-8226
RXF 393 = system: RXF 393
SF-268 = system: SF-268
SF-295 = system: SF-295
SF-539 = system: SF-539
SK-MEL-28 = system: SK-MEL-28
SK-MEL-2 = system: SK-MEL-2
SK-MEL-5 = system: SK-MEL-5
SK-OV-3 = system: SK-OV-3
SN12C = system: SN12C
SNB-19 = system: SNB-19
SNB-75 = system: SNB-75
SNB-78 = system: SNB-78
SR = system: SR
SW-620 = system: SW-620
TK-10 = system: TK-10
U-251 = system: U-251
UACC-257 = system: UACC-257
UACC-62 = system: UACC-62
UO-31 = system: UO-31
XF498 = system: XF498

In the case of `CCCOP(=S)(N1CC1)N1CC1`, the GI50 (786-0) is reported as > 100 µM (inactive), the GI50 (A498) is reported as > 100 µM (inactive) and the GI50 (A549) is reported as > 100 µM (inactive). For the same compound, the GI50 (ACHN) was > 100 µM (inactive), the GI50 (CAKI-1) was > 100 µM (inactive) and the GI50 (CCRF-CEM) was > 100 µM (inactive). The GI50 (COLO 205) was > 100 µM (inactive), the GI50 (DLD-1) was > 100 µM (inactive) and the GI50 (DMS-114) was > 100 µM (inactive). For the same compound, the GI50 (DMS-273) was > 100 µM (inactive), the GI50 (EKVX) was > 100 µM (inactive) and the GI50 (HCC 2998) was > 100 µM (inactive). For the same compound, the GI50 (HCT-116) was > 100 µM (inactive), the GI50 (HCT-15) was greater than 100 µM and the GI50 (HL-60) was > 100 µM (inactive). The GI50 (HOP-18) was 40.7 µM (inactive), the GI50 (HOP-62) was > 100 µM (inactive) and the GI50 (HOP-92) was > 100 µM (inactive). The GI50 (HT-29) was > 100 µM (inactive), the GI50 (IGROV-1) was > 100 µM (inactive) and the GI50 (K562) was > 100 µM (inactive). For the same compound, the GI50 (KM-20L2) was > 100 µM (inactive), the GI50 (KM12) was > 100 µM (inactive) and the GI50 (LOX IMVI) was > 100 µM (inactive). For the same compound, the GI50 (M14) was > 100 µM (inactive), the GI50 (M19-MEL) was > 100 µM (inactive) and the GI50 (MOLT-4) was > 100 µM (inactive). For the same compound, the GI50 (Malme-3M) was > 100 µM (inactive), the GI50 (NCI-H226) was 75.9 µM (inactive) and the GI50 (NCI-H23) was > 100 µM (inactive). For the same compound, the GI50 (NCI-H460) was > 100 µM (inactive), the GI50 (NCI-H522) was > 100 µM (inactive) and the GI50 (OVCAR-3) was > 100 µM (inactive). For the same compound, the GI50 (OVCAR-4) was > 100 µM (inactive), the GI50 (OVCAR-5) was > 100 µM (inactive) and the GI50 (OVCAR-8) was > 100 µM (inactive). For the same compound, the GI50 (RPMI-8226) was > 100 µM (inactive), the GI50 (RXF 393) was > 100 µM (inactive) and the GI50 (SF-268) was > 100 µM (inactive). For the same compound, the GI50 (SF-295) was > 100 µM (inactive), the GI50 (SF-539) was > 100 µM (inactive) and the GI50 (SK-MEL-28) was > 100 µM (inactive). The GI50 (SK-MEL-2) was > 100 µM (inactive), the GI50 (SK-MEL-5) was > 100 µM (inactive) and the GI50 (SK-OV-3) was > 100 µM (inactive). The GI50 (SN12C) was > 100 µM (inactive), the GI50 (SNB-19) was > 100 µM (inactive) and the GI50 (SNB-75) was 48.3 µM (inactive). For the same compound, the GI50 (SNB-78) was > 100 µM (inactive), the GI50 (SR) was > 100 µM (inactive) and the GI50 (SW-620) was > 100 µM (inactive). For the same compound, the GI50 (TK-10) was > 100 µM (inactive), the GI50 (U-251) was > 100 µM (inactive) and the GI50 (UACC-257) was 24.8 µM (inactive). For the same compound, the GI50 (UACC-62) was > 100 µM (inactive), the GI50 (UO-31) was > 100 µM (inactive) and the GI50 (XF498) was > 100 µM (inactive).

From ChEMBL document CHEMBL1201862, “PubChem BioAssay data set” (2004)
